Legend:
sorted splenic pDCs [1] = assay: Phospho-CREB protein level in cultured splenic pDC lysates (Bio-Plex); type: cell-based, mouse; details: 3 days
Experimental: (§1) Isolated splenic pDCs were cultured in 48 well plates (200,000 cells/well) for 3 days with Ham's F-12 Nutrient Mix (Gibco, Carlsbad, Calif.) supplemented with 10% heat inactivated fetal bovine serum (FBS; Gemini Bioproducts, Woodland, Calif.), and 1% penicillin/streptomycin (Life Technologies, Carlsbad, Calif.). Cells were treated with 1, 5, and 10 μg/ml Imiquimod (InvivoGen, San Diego, Calif.) or PBS upon seeding. In another set of experiments, cells were pretreated with 10 μM SB 203580 (p38 MAP kinase inhibitor; Sigma-Aldrich) or PBS 1 hour prior to addition of 1 μg/ml Imiquimod (InvivoGen) or PBS. Cells were harvested for RNA or protein extraction 3 days after culture.
On day 3 following culture of sorted pDCs, cells were lysed via Bio-Plex Pro Cell Signaling Reagent Kit (Biorad) supplemented with phosphotase inhibitor cocktail (Roche) and phospho-CREB and β-actin levels were measured via phospho-CREB and β-actin Bio-Plex assays (Biorad) according to the manufacturer's instructions. Relative phospho-CREB to total β-actin protein levels were normalized to control group.

sorted splenic pDCs [2] = assay: NGF and CREB relative mRNA (qRT-PCR) in cultured sorted splenic pDCs; type: cell-based, mouse
Experimental: pDCs were isolated from DPE-GFP×RAG1^−/− and cDCs were purified from naïve WT C57BL/6 mice, respectively. DPE-GFP×RAG1^−/− mice underwent subcutaneous injection of 5×10^6 B16 murine Flt3L-secreting melanoma tumor cells. 10-14 days later, mice were euthanized; spleens were harvested, and mechanically disturbed using a 5 ml syringe plunger and were filtered through a […] cell strainer (BD Falcon). Next, after incubation with ice-cold ammonium chloride (ACK) lysis buffer (Biofluids, Rockville, Md.) for 1 minute to remove contaminating RBCs, cells were washed with PBS. GFP-tagged pDCs were sorted via Moflo Cell Sorter (Beckman Coulter, Brea, Calif.). For obtaining pDCs for co-culturing TGCs with different densities of pDCs, as well as for flow cytometry and presence of NGF mRNA on GFP-tagged splenic pDCs, and comparing the NGF mRNA content in pDCs and cDCs, naïve DPE-GFP×RAG1^−/− mice were used. cDCs were purified using CD11c MicroBeads (Miltenyi Biotec) according to the manufacturer's instruction, with a purity of more than 85%.
as §1
(§2) Corneal epithelium was removed with fine forceps following 30 minutes incubation with PBS containing 20 mM EDTA (Sigma-Aldrich) at 37° C. Next, 4-6 corneal stromas were pooled and lysed using BeadBug Microtube Homogenizer (Benchmark Scientific, Inc., Edison, N.J.). Next, RNA was isolated from the corneal stroma using RNeasy Plus Universal Mini kit (QIAGEN, Germantown, Md.). For isolating RNA from freshly sorted pDCs, purified cDCs, cultured pDCs, and cultured TGCs, RNeasy Plus Micro Kit (QIAGEN) was used. RNA yield was measured by spectroscopy (NanoDrop ND-1000; NanoDrop Technologies, Inc., Wilmington, Del.). cDNA was synthetized using 300 ng of template RNA using QuantiTect Reverse Transcription kit (Qiagen). qRT-PCR was performed using iTaq Universal SYBR Green Supermix (Biorad, Hercules, Calif.) and Eppendorf Mastercycler RealPlex 2 (Eppendorf, Hauppauge, N.Y.) with the primers described below. Relative mRNA levels were measured with ΔΔCT method.

[3] = tested on: trigeminal ganglion cells (TGCs); assay: Neurite outgrowth of TGCs in mono-culture or pDC co-culture with Imiquimod; type: cell-based, mouse; details: day 3
Experimental: Initially, 10-day old pups were euthanized, TGs were excised, chopped into small fragments, and digested in 2 mg/ml Collagenase D (Roche), 2 mg/ml DNAse I (Roche), and 5 mg/ml Dispase II (Sigma-Aldrich) in Hank's Balanced Salt Solution (Gibco) at 37° C. for 30 minutes. Next, after filtering, cells were layered over a 12.5% on 28% Percoll (GE Healthcare, Pittsburgh, Pa.) gradient in L15 media (Gibco) and centrifuged at 1300 g for 10 minutes. Following removing debris in the percoll interface, purified TGCs were recovered from the bottom of the gradient. Next, 10,000 cells/well were seeded in 24 well cell culture plates coated with growth factor reduced Matrigel (Corning Inc, Corning, N.Y.) in Ham's F-12 Nutrient Mix (Gibco) supplemented with 10% heat inactivated FBS (Gemini Bioproducts), 1% penicillin/streptomycin (Life Technologies) and 100 ng/ml NGF (Sigma-Aldrich). After one day of culture, media was changed to a similar media without NGF and sorted pDCs with different numbers were added to transwells. […] TGCs were used for RNA extraction and quantitative real-time PCR.
In another set of experiments, TGCs (10,000 cells/well) were cultured one day to adding 8,000 pDCs/well) to transwells. […] Neurite outgrowth was measured NeuronJ plugin (Meijering et al., Cytometry A 58(2):167-76, 2004) for ImageJ software (NIH, Bethesda, Md.).

corneal pDCs = assay: Ocular inoculation of TLR7 and 9 agonists, single cell PCR on sorted corneal pDCs; type: in vivo, mouse; details: 24 hours; for relative mRNA levels of NGF: 10 μg inoculated to cornea of DPE-GFP×RAG1−/− mice
Experimental: (§3) 8-10 corneas of naïve DPE-GFP×RAG1^−/− mice were excised and digested to yield a single cell suspension as described for flow cytometry experiments. GFP-tagged pDCs were sorted via Moflo Cell Sorter (Beckman Coulter) into a 96-well plate (100 cell/well) and cultured for 24 hours in RPMI (Gibco) supplemented with 10% 10% FBS (Gemini Bioproducts), 1% penicillin/streptomycin (Life Technologies), as well as 3 μg/ml Imiquimod, CpG-ODN, or control ODN (all InvivoGen). RNA isolation and cDNA synthesis were performed via REPLI-g Cell WGA & WTA kit (Qiagen). qRT-PCR was performed as described earlier. In another set of experiments, 4-6 corneas of DPE-GFP×RAG1^−/− mice undergoing inoculation of 10 μg Imiquimod, 10 μg CpG-ODN, or control ODN were harvested 24 hours following inoculation; next, corneas were digested and GFP-tagged pDCs were sorted (100 cell/condition) and underwent single cell PCR.
Following anesthetizing DPE-GFP×RAG1^−/− mice and application of topical proparacaine hydrochloride, central corneal epithelium was debrided using an Algerbrush II corneal rust ring remover with a 0.5-mm burr (Alger Equipment Co, Lago Vista, Tex.). 10 μg Imiquimod (TLR7 agonist; InvivoGen, San Diego, Calif.), 10 μg phosphorothioate CpG 1826 oligonucleotide (CpG-ODN; a synthetic TLR9 agonist; InvivoGen), or control oligonucleotide 1826 (Control ODN; InvivoGen) was topically administered on the eye. 24 hours later corneas were removed to sort corneal GFP-tagged pDCs and single cell PCR experiments.

[4] = tested on: splenic pDCs (CD45+PDCA-1+CD45R/B220+); assay: Endostatin expression in pDCs of cultured splenic cells (flow cytometry); type: cell-based, mouse; details: splenic cells of C57BL/6 mice, 1 μg/ml, 24 hours
Experimental: Spleens of wildtype C57BL/6 mice were harvested and subjected to mechanical disruption. Samples were then filtered and underwent RBC lysis via incubation with ammonium chloride RBC lysis buffer (ACK; Biofluids, Rockville, Md.). Next, isolated splenic cells were cultured in RPMI supplemented with 10% heat-inactivated fetal bovine serum (FBS; Gemini Bioproducts, Woodland, Calif.), and 1% penicillin/streptomycin (Life Technologies, Carlsbad, Calif.). Cells were treated with 1 μg/ml Imiquimod (TLR7 agonist; InvivoGen, San Diego, Calif.), CpG-ODN (TLR9 agonist; InvivoGen), or PBS control for 24 hours. The experiment was done in triplicate.
After 24 hours of culture, isolated splenic cells were subjected to flow cytometry. In brief, cells were washed and then fixed and permeabilized using Foxp3/Transcription Factor Fixation/Permeabilization Reagent (eBioscience, San Diego, Calif.) according to the manufacturer's instructions. Cells were then washed twice with permeabilization buffer (eBioscience), blocked in 1% anti-CD16/CD32 FcR mAb at 4° C. in permeabilization buffer, and subsequently labeled with combinations of primary antibodies against CD45 (Biolegend, San Diego, Calif.), PDCA-1 (Biolegend), CD45R/B220 (Biolegend), Endostain (Abcam, Cambridge, Mass.) or their respective isotype controls for 30 minutes at 4° C. in the dark. After washing, cells were labeled with fluorochrome-conjugated anti-rabbit secondary antibody (for Endostatin) for 30 minutes at 4° C. All samples were washed and reconstituted in permeabilization before data acquisition with a BD LSR II flow cytometer (BD Biosciences). Data were analyzed with FlowJo V9.2 (FlowJo, LLC).

sorted corneal pDCs = assay: Single cell PCR on sorted corneal pDCs stimulated in vitro; type: cell-based, mouse; details: 24 hours in vitro, 3 μg/ml
Experimental: as §2, §3

Row | Compound | phosphorylation of CREB (phospho-CREB normalized to β-actin) (sorted splenic pDCs [1]; splenic pDCs pre-treated 1 hour with 10 μM SB 203580, then 1 μg/ml Imiquimod, in comparison to control) [fold change] | relative NGF mRNA level (sorted splenic pDCs [2]; splenic pDCs pre-treated 1 hour with 10 μM SB 203580, then 1 μg/ml Imiquimod, 3 days) [fold change] | neurite outgrowth in TGC mono-culture ([3]; TGCs alone, 1, 5 or 10 μg/ml Imiquimod) | neurite outgrowth in pDC and TGC co-culture ([3]; TGCs with 8,000 pDCs/well in transwells, 1, 5 or 10 μg/ml Imiquimod) | relative mRNA levels of NGF (corneal pDCs) [fold increase] | CREB mRNA level (corneal pDCs; ocular inoculation of 10 μg, vs control inoculation) | median fluorescent intensity of endostatin staining in pDCs [4] | percentage of endostatin-secreting pDCs [4] | phosphorylation of CREB (phospho-CREB normalized to β-actin) (sorted splenic pDCs [1]; splenic pDCs, 1 μg/ml Imiquimod) [fold increase] | CREB transcription (relative mRNA) (sorted corneal pDCs) | relative mRNA level of NGF (sorted corneal pDCs) | NGF relative mRNA level (sorted splenic pDCs [2]; splenic GFP-tagged pDCs, 3 days, 1, 5 and 10 μg/ml Imiquimod) | CREB relative mRNA level (sorted splenic pDCs [2]; splenic GFP-tagged pDCs, 3 days, different concentrations of Imiquimod) | relative NGF mRNA level (sorted splenic pDCs [2]; splenic pDCs, 1 μg/ml Imiquimod, 3 days) [fold increase]
1 | C[S+]([O-])c1ccc(-c2nc(-c3ccncc3)c(-c3ccc(F)cc3)[nH]2)cc1 (stereo not shown) [SB 203580] | 0.5±0.2 | 0.4±0.1 | – | – | – | – | – | – | – | – | – | – | – | –
2 | CC(C)Cn1cnc2c(N)nc3ccccc3c21 [Imiquimod] | – | – | does not significantly enhance neurite outgrowth | enhances neurite outgrowth induced by pDCs | 7.3±1.1 | higher CREB mRNA levels | increases | increases the percentage of endostatin-secreting | 3.8±1.5 | increases transcription of CREB | 2.6±0.7 fold increase | dose dependent increase | dose-dependent increase | 2.0±0.6
3 | phosphorothioate CpG 1826 oligonucleotide [CpG-ODN] | – | – | – | – | 1.8±1.6 | – | increases | increases the percentage of endostatin-secreting | – | does not result in significant escalation in CREB transcription | did not result in increased NGF mRNA transcription | – | – | –

Source: patent publication US20220096526A1, “METHODS AND COMPOSITIONS FOR THE TREATMENT AND PREVENTION OF OCULAR DISEASES AND CONDITIONS” (Tufts Medical Center, Inc., priority 2019, published 2022)
